# Source: patent publication US20060014717A1, “Therapeutic compositions for use in prophylaxis or treatment of diarrheas” (priority 2002, published 2006)
# Experiments:
# diarrheagenic E. coli = test: Inhibition with soluble oligosaccharides in the chromatogram binding assay; design: species or system Escherichia coli
# Protocol: (§1) Glycosphingolipid Binding Assays—Binding of ^35S-labeled bacteria to glycosphingolipids on thin-layer chromatograms was done as reported (7). Dried chromatograms were dipped for 1 min in diethylether/n-hexane (1:5, by volume) containing 0.5% (w/v) polyisobutylmethacrylate (Aldrich Chem. Comp. Inc., Milwaukee, Wis.). After drying, the chromatograms were soaked in PBS containing 2% bovine serum albumin (w/v), 0.1% NaN3 (w/v) and 0.1% Tween 20 (by volume) for 2 h at room temperature. The chromatograms were subsequentely covered with radiolabeled bacteria diluted in PBS (2-5×10^6 cpm/ml). Incubation was done for 2 h at room temperature, followed by repeated washings with PBS. The chromatograms were thereafter autoradiographed using XAR-5 X-ray films (Eastman Kodak, Rochester, N.Y.) for 12 h. Autoradiograms were replicated using a CCD camera (Dage-MTI, Inc., Michigan City, Ind.), and analysis of the images was performed using the public domain NIH Image program (developed at the U.S. National Institutes of Health, and available at http://rsb.info.nih.eov/nih-imaee/).
# The final concentrations of the inhibiting oligosaccharides on the TLC-plate were 0.3 mM. […] Thereafter the chromatogram binding assay was performed as described above.
# EPEC strain = conditions: listed in decreasing order of activity; cited from earlier work
# [1] = test system: diarrheagenic Escherichia coli CCUG 38077 (EAEC); test: Chromatogram binding assay of 35S-labeled bacteria to glycosphingolipids on thin-layer plates; conditions: thin-layer chromatograms, TLC overlay
# Protocol: (§2) Culture Conditions and Labeling—The E. coli strains were cultured on Luria-agar with the addition of 10 μl ^35S-methionine (400 tici; Amersham Pharmacia Biotech, U.K.) at 37° C. for 12 h. The bacteria were harvested by scraping, washed three times with phosphate-buffered saline (PBS), pH 7.3, and thereafter resuspended in PBS (with or without 1% mannose (w/v)) to 1×10^8 CFU/ml. The specific activities of the suspensions were approximately 1 cpm per 100 bacteria.
# (§3) Thin-Layer Chromatography—Thin-layer chromatography of glycosphingolipids was performed on glass- or aluminum-backed silica gel 60 HPTLC plates (Merck, Darmstadt, Germany), using chloroform/methanol/water 60:35:8 (by volume) as solvent system. Chemical detection was done with anisaldehyde (6).
# as §1
# [2] = test system: diarrheagenic Escherichia coli CCUG 38068 (EPEC); test: as above; conditions: thin-layer chromatograms, TLC overlay
# Protocol: as §2, §3, §1
Compound,Binding of an EPEC strain to commercial glycolipids (EPEC strain),"Binding of strain CCUG 38077 to glycosphingolipids and neoglycolipids, in words [1]","Binding of strain CCUG 38068 to glycosphingolipids and neoglycolipids, in words [2]",further results
"CC(=O)N[C@H]1[C@H](O[C@H]2[C@@H](O)[C@@H](CO)O[C@@H](O[C@H]3[C@H](O)[C@@H](O)C(O)O[C@@H]3CO)[C@@H]2O)O[C@H](CO)[C@@H](O[C@@H]2O[C@H](CO)[C@H](O)[C@H](O)[C@H]2O)[C@@H]1O (mixture of isomers) [Lacto-N-neotetraose, Galβ4GlcNAcβ3Galβ4Glc]",,,,Inhibition of binding to neolacto glycolipid (diarrheagenic E. coli; 0.3 mM final concentration): inhibited binding
"CC(=O)N[C@H]1[C@H](O[C@H]2[C@@H](O)[C@@H](CO)O[C@@H](O[C@H]3[C@H](O)[C@@H](O)C(O)O[C@@H]3CO)[C@@H]2O)O[C@H](CO)[C@@H](O)[C@@H]1O[C@@H]1O[C@H](CO)[C@H](O)[C@H](O)[C@H]1O (some centres unmarked) [Lacto-N-tetraose, Galβ3GlcNAcβ3Galβ4Glc]",observed to bind,,,Inhibition of binding to lactotetraosylceramide (diarrheagenic E. coli; lowest densities of glycolipids): able to inhibit
Galα4Galβ4Glcβ1Cer [No. 8],negative,,,
CCCCCCCCCCCCCCCCc1ccc(NC[C@H](O)[C@@H](O)[C@H](O[C@@H]2O[C@H](CO)[C@H](O)[C@H](O[C@@H]3O[C@H](CO)[C@@H](O[C@@H]4O[C@H](CO)[C@H](O)[C@H](O[C@@H]5O[C@H](CO)[C@@H](O)[C@H](O)[C@H]5NC(C)=O)[C@H]4O)[C@H](O)[C@H]3NC(C)=O)[C@H]2O)[C@H](O)CO)cc1 [GlcNAcβ3Galβ4GlcNAcβ3Galβ4Glc(red)-HDA],,had binding activity,had binding activity,
"CCCCCCCCCCCCCCCCc1ccc(NC[C@H](O)[C@@H](O)[C@H](O[C@@H]2O[C@H](CO[C@@H]3O[C@H](CO)[C@@H](O[C@@H]4O[C@H](CO)[C@H](O)[C@H](O[C@@H]5O[C@H](CO)[C@@H](O)[C@H](O)[C@H]5NC(C)=O)[C@H]4O)[C@H](O)[C@H]3NC(C)=O)[C@H](O)[C@H](O)[C@H]2O)[C@H](O)CO)cc1 [GlcNAcβ3Galβ4GlcNAcβ6Galβ4Glc(red)HDA, GlcNAcβ3Galβ4GlcNAcβ6Galβ4Glc(red)-HDA]",,much weaker or non-existent binding activities,much weaker or non-existent binding activities,
GalNAcβ4Galβ4Glcβ1Cer [No. 10],observed to bind,,,
CCCCCCCCCCCCCCCCc1ccc(NC[C@@H](O)[C@@H](O[C@H]2O[C@H](CO)[C@@H](O)[C@H](O)[C@@H]2O)[C@H](O)[C@H](O)CO[C@H]2O[C@H](CO)[C@@H](O)[C@H](O)[C@@H]2O)cc1 [Manα3(Manα6)Man(red)-HDA],,had binding activity,had binding activity,"Binding of strain CCUG 38077 to glycosphingolipids and neoglycolipids, in words ([1]; listed as Manα3(Manα6)Man): bind; Binding of strain CCUG 38068 to glycosphingolipids and neoglycolipids, in words ([2]; listed as Manα3(Manα6)Man): bind"
GalNAcα3GalNAcβ3Galα4Galβ4Glcβ1Cer [No. 14],negative,,,
CCCCCCCCCCCCCCCCc1ccc(NC[C@H](O)[C@@H](O)[C@H](O[C@@H]2O[C@H](CO[C@@H]3O[C@H](CO)[C@@H](O)[C@H](O)[C@H]3NC(C)=O)[C@H](O)[C@H](O[C@@H]3O[C@H](CO)[C@@H](O)[C@H](O[C@@H]4O[C@H](CO)[C@H](O)[C@H](O)[C@H]4O)[C@H]3NC(C)=O)[C@H]2O)[C@H](O)CO)cc1 [Galβ3GlcNAcβ3(GlcNAcβ6)Galβ4Glc(red)-HDA],,much weaker or non-existent binding activities,much weaker or non-existent binding activities,
CC(=O)N[C@H]1C(O)O[C@H](CO)[C@H](O)[C@@H]1O[C@@H]1O[C@H](CO)[C@H](O)[C@H](O)[C@H]1O (some centres unmarked) [Galβ3GalNAc],,,,Activity as monovalent inhibitor against the Ganglio-receptor glycolipid (diarrheagenic E. coli; 0.3 mM concentration): not active
